# Source: US20160150782A1, “USE OF SELECTED PYRIDONE CARBOXAMIDES OR SALTS THEREOF AS ACTIVE SUBSTANCES AGAINST ABIOTIC PLANT STRESS” (BAYER CROPSCIENCE AKTIENGESELLSCHAFT, priority 2013, published 2016)
# Key:
# Format in all cases: in vivo
# Details in all cases: efficacy = reduction in damage intensity, spray WP, 600 l/ha water
# Triticum aestivum = experiment: Drought stress test on sprayed greenhouse plants, visual damage scoring (Table 4)
# Method: (§1) Seeds of monocotyledonous and dicotyledonous crop plants are sown in sandy loam in plastic or wood-fiber pots, covered with soil or sand and cultivated in a greenhouse under good growth conditions. The test plants are treated at the early leaf stage (BBCH10-BBCH13). To assure uniform water supply before commencement of stress, the potted plants are supplied with water by dam irrigation prior to substance application. The inventive compounds, formulated in the form of wettable powders (WP), are sprayed onto the green parts of the plants as an aqueous suspension at an equivalent water application rate of 600 I/ha with addition of 0.2% wetting agent (e.g. agrotin). Substance application is followed immediately by stress treatment of the plants. For this purpose, the wood-fiber pots are transferred in plastic inserts in order to prevent them from subsequently drying out too quickly. Drought stress is induced by gradual drying out under the following conditions: “Day”: 14 hours with illumination at 26-30° C. “Night”: 10 hours without illumination at 18-20° C. The duration of the respective stress phases is guided mainly by the condition of the stressed control plants. […] The end of the stress phase is followed by an approx. 4-14-day recovery phase, during which the plants are once again kept under good growth conditions in a greenhouse. The duration of the recovery phase is guided mainly by when the trial plants have attained a state which enables visual scoring of potential effects, and is therefore variable. […] The damage intensity is at first assessed in percent.
# Zea mays (corn) [1] = experiment: Drought stress test on sprayed greenhouse plants, visual damage scoring (Table 2); parameters: key: reduction in damage intensity, damage assessed in %
# Method: as §1
# Brassica napus = experiment: Drought stress test on sprayed greenhouse plants, visual damage scoring (Table 3); parameters: key: reduction in damage intensity, damage assessed in %
# Method: as §1
# Zea mays (corn) [2] = experiment: Cold stress test on sprayed greenhouse plants, visual damage scoring (Table 1)
# Method: Seeds of monocotyledonous and dicotyledonous crop plants are sown in sandy loam in plastic or wood-fiber pots, covered with soil or sand and cultivated in a greenhouse under good growth conditions. The test plants are treated at the early leaf stage (BBCH10-BBCH13). To assure uniform water supply before commencement of stress, the potted plants are supplied with water by dam irrigation prior to substance application.
# The inventive compounds, formulated in the form of wettable powders (WP), are sprayed onto the green parts of the plants as an aqueous suspension at an equivalent water application rate of 600 I/ha with addition of 0.2% wetting agent (e.g. agrotin). Substance application is followed immediately by stress treatment of the plants. For this purpose, the wood-fiber pots are transferred in plastic inserts in order to prevent them from subsequently drying out too quickly.
# The duration of the respective stress phases is guided mainly by the condition of the stressed control plants. It is ended (by re-irrigating and transfer to a greenhouse with good growth conditions) as soon as irreversible damage is observed on the stressed control plants.
# The end of the stress phase is followed by an approx. 4-14-day recovery phase, during which the plants are once again kept under good growth conditions in a greenhouse. The duration of the recovery phase is guided mainly by when the trial plants have attained a state which enables visual scoring of potential effects, and is therefore variable.
# Once this juncture has been reached, the intensities of damage are scored visually in comparison to untreated, unstressed controls of the same age. The damage intensity is at first assessed in percent. These values are then used to calculate the efficacy of the test compounds by the following formula:
# [formula] • E: Efficacy=reduction in damage intensity as a result of treatment with test substance • DIs: Damage intensity of the stressed control plants • DIt: Damage intensity of the plants treated with test compound […]
smiles,measurement,setting,value
CCCc1[nH]c(=O)c(C(=O)NCC)cc1Cl [compound 3699],E (TRZAS),Triticum aestivum; dosage 25 g/ha,>5
CCCNC(=O)c1cc(I)c(CCC)[nH]c1=O [compound 3920],E (ZEAMX),Zea mays (corn) [1]; dosage 25 g/ha,>5
same,E (TRZAS),Triticum aestivum; dosage 25 g/ha,>5
CCc1cc(C(=O)NC(C)CN(C)C)c(=O)[nH]c1C(F)(F)C(F)(F)Cl (centres unmarked) [compound 933],E (BRSNS),Brassica napus; dosage 25 g/ha,>5
same,E (TRZAS),Triticum aestivum; dosage 250 g/ha,>5
CCCc1[nH]c(=O)c(C(=O)NCCC(C)C)cc1I [compound 3940],E (ZEAMX),Zea mays (corn) [1]; dosage 25 g/ha,>5
same,E (TRZAS),Triticum aestivum; dosage 25 g/ha,>5
CCc1cc(C(=O)N(C)CC(=O)OC)c(=O)[nH]c1C(F)(F)C(F)(F)F [compound 770],E (TRZAS),Triticum aestivum; dosage 25 g/ha,>5
CCc1[nH]c(=O)c(C(=O)NCCC(C)C)cc1C [compound 2840],E (TRZAS),Triticum aestivum; dosage 250 g/ha,>5
CCCc1[nH]c(=O)c(C(=O)N(C)CC(=O)OC)cc1I [compound 3917],E (TRZAS),Triticum aestivum; dosage 25 g/ha,>5
CCCc1[nH]c(=O)c(C(=O)NC(C)COC)cc1CC (centres unmarked) [compound 3639],E (TRZAS),Triticum aestivum; dosage 25 g/ha,>5
COC(=O)CN(C)C(=O)c1cc(C)c(C)[nH]c1=O [compound 4027],E (TRZAS),Triticum aestivum; dosage 250 g/ha,>5
CCCc1[nH]c(=O)c(C(=O)N(C)CC(=O)OC)cc1Br [compound 3807],E (TRZAS),Triticum aestivum; dosage 25 g/ha,>5
Cc1cc(C(=O)NCCC(C)C)c(=O)[nH]c1C(F)(F)C(F)(F)F [compound 243],E (TRZAS),Triticum aestivum; dosage 250 g/ha,>5
CC(C)C(C)NC(=O)c1cc(Br)c(C(F)C(F)(F)F)[nH]c1=O (centres unmarked) [compound 2128],E (ZEAMX),Zea mays (corn) [1]; dosage 25 g/ha,>5
same,E:E (ZEAMX),Zea mays (corn) [2]; dosage 250 g/ha,>5
COCCCNC(=O)c1cc(C)c(C(F)(F)C(F)(F)F)[nH]c1=O [compound 274],E (TRZAS),Triticum aestivum; dosage 250 g/ha,>5
COCCNC(=O)c1cc(C)c(C)[nH]c1=O [compound 46],E (ZEAMX),Zea mays (corn) [1]; dosage 25 g/ha,>5
same,E (BRSNS),Brassica napus; dosage 250 g/ha,>5
Cc1cc(C(=O)NCC2CC2)c(=O)[nH]c1C(F)(F)C(F)(F)F [compound 233],E (BRSNS),Brassica napus; dosage 25 g/ha,>5
C=CCNC(=O)c1cc(Br)c(C(F)(F)F)[nH]c1=O [compound 1785],E (BRSNS),Brassica napus; dosage 50 g/ha,>5
COCCNC(=O)c1cc(C)c(C(F)(F)C(F)(F)F)[nH]c1=O [compound 266],E (ZEAMX),Zea mays (corn) [1]; dosage 25 g/ha,>5
same,E (BRSNS),Brassica napus; dosage 25 g/ha,>5
same,E (TRZAS),Triticum aestivum; dosage 25 g/ha,>5
"CCc1cc(C(=O)NC2CC2)c(=O)[nH]c1C(F)(F)C(F)(F)F [compound 665, N-Cyclopropyl-5-ethyl-2-oxo-6-(pentafluoroethyl)-1,2-dihydropyridine-3-carboxamide]",E (BRSNS),Brassica napus; dosage 250 g/ha,>5
CC(C)(C)CNC(=O)c1cc(I)c(C(F)(F)F)[nH]c1=O [compound 2223],E (ZEAMX),Zea mays (corn) [1]; dosage 250 g/ha,>5
same,E:E (ZEAMX),Zea mays (corn) [2]; dosage 25 g/ha,>5
COCC(C)NC(=O)c1cc(C)c(C(F)(F)C(F)(F)F)[nH]c1=O (centres unmarked) [compound 272],E (TRZAS),Triticum aestivum; dosage 25 g/ha,>5
C=CCNC(=O)c1cc(Cl)c(C(F)(F)C(F)(F)Cl)[nH]c1=O [compound 1565],E (BRSNS),Brassica napus; dosage 250 g/ha,>5
CCc1[nH]c(=O)c(C(=O)NCCC(C)C)cc1Cl [compound 3170],E (TRZAS),Triticum aestivum; dosage 25 g/ha,>5
CC(C)C(C)NC(=O)c1cc(Cl)c(C(F)(F)Cl)[nH]c1=O (centres unmarked) [compound 1688],E (BRSNS),Brassica napus; dosage 250 g/ha,>5
C=C(C)CNC(=O)c1cc(C)c(C(F)(F)C(F)(F)F)[nH]c1=O [compound 247],E (BRSNS),Brassica napus; dosage 25 g/ha,>5
Cc1cc(C(=O)NCCO)c(=O)[nH]c1C(F)(F)C(F)(F)F [compound 265],E (TRZAS),Triticum aestivum; dosage 250 g/ha,>5
same,E:E (ZEAMX),Zea mays (corn) [2]; dosage 10 g/ha,>5
CCNC(=O)c1cc(Cl)c(CC)[nH]c1=O [compound 3149],E (TRZAS),Triticum aestivum; dosage 25 g/ha,>5
"CCCC(C)NC(=O)c1cc(C)c(C)[nH]c1=O (centres unmarked) [compound 32, 5,6-Dimethyl-2-oxo-N-(pentan-2-yl)-1,2-dihydropyridine3-carboxamide]",E (BRSNS),Brassica napus; dosage 250 g/ha,>5
CCC(CC)NC(=O)c1cc(Br)c(C(F)(Cl)C(F)(F)F)[nH]c1=O (centres unmarked) [compound 2020],E (BRSNS),Brassica napus; dosage 25 g/ha,>5
CCOC(=O)C1CCCCN1C(=O)c1cc(C)c(C(F)(F)F)[nH]c1=O (centres unmarked) [compound 204],E (BRSNS),Brassica napus; dosage 25 g/ha,>5
